# Experimental data from ChEMBL document CHEMBL1201862, “PubChem BioAssay data set” (2004).
# The source made the active and inactive calls.
# Experiments:
# [1] = microbe, parasite or virus in culture; assay type: functional; conditions: Mycobacterium tuberculosis
# [2] = biological target: Heat shock protein HSP 90-alpha (Homo sapiens, UniProt P07900); assay type: functional, organism-based
# [3] = biological target: T1, Calpain-2 catalytic subunit (Sus scrofa, UniProt P43367); experiment: pig calpain II inhibitor potency, dose response, biochemical, fluorogenic peptide substrate (AID 1420); assay type: functional
# T1 sequence (P43367 whole entry): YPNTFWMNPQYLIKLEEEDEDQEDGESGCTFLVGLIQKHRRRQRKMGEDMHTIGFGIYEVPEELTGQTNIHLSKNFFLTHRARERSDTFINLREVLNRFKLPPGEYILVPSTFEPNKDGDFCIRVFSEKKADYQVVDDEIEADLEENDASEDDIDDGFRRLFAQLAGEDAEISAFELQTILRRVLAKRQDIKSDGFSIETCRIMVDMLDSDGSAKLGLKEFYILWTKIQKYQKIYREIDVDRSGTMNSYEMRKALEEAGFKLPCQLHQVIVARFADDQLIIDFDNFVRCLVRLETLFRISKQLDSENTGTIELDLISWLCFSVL
# Fatty acid synthase [4] = biological target: T2, Fatty acid synthase (Homo sapiens, UniProt P49327); experiment: FAS thioesterase domain inhibitors, dose response, biochemical, kinetic fluorescence intensity (AID 624326); assay type: functional;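 further: rate of fluorescence rise from hydrolysis of a fluorogenic O-methyl fluorescein ester substrate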
# Fatty acid synthase [5] = biological target: T2, Fatty acid synthase; experiment: FAS thioesterase domain inhibitors, dose response, biochemical, endpoint fluorescence intensity, uHTS hits (AID 624327); assay type: functional;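 further: fluorescence from hydrolysis of an O-methyl fluorescein acyl ester substrate by the enzyme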
# [6] = biological target: T3, Histone-lysine N-methyltransferase NSD2 (Homo sapiens, UniProt O96028); assay type: biochemical
# T3 sequence (O96028 whole entry): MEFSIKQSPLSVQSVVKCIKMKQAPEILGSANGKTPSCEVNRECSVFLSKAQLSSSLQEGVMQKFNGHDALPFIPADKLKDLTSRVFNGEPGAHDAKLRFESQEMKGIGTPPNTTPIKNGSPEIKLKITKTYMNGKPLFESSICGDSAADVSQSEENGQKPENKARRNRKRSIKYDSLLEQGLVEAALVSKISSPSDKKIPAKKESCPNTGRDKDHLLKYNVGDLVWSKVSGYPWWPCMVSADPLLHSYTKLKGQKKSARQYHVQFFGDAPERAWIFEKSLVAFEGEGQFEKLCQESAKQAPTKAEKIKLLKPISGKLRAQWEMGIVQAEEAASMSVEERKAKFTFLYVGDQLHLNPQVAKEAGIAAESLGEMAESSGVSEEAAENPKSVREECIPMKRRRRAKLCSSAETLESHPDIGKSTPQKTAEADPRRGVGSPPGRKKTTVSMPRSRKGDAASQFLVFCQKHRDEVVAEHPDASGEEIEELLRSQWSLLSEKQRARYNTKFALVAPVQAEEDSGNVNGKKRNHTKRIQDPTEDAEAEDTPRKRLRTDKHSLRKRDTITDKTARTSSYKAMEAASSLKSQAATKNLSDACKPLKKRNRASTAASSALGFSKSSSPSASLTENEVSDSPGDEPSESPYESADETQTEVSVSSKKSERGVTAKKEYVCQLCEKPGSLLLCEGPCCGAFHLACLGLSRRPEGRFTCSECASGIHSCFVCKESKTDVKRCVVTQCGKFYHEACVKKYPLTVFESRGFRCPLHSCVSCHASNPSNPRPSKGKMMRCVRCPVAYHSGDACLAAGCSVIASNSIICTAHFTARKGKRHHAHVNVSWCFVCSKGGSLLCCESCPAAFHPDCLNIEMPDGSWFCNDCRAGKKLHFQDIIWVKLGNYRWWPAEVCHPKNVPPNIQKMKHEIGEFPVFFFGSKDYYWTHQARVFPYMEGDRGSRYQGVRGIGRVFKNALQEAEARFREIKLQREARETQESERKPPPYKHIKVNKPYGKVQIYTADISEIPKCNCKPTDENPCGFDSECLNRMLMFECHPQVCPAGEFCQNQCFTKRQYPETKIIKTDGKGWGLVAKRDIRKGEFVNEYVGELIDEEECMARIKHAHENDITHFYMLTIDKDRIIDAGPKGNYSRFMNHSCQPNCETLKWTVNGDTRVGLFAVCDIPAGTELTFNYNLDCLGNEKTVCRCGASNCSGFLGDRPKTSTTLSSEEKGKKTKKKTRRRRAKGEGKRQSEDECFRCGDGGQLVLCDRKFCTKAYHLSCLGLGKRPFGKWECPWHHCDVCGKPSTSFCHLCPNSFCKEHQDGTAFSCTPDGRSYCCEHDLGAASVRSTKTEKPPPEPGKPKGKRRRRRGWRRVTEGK
# [7] = growth suppression of PTEN-null colon cells, dose response, cell-based, HCT116 PTEN knockout (AID 1047); assay type: functional;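 further: HCT116 colon tumor cells with PTEN knocked out; cells exposed to compound for 60 hours before readout; potency for loss of cell viability measured by luminescence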
# [8] = growth suppression of beta-catenin-knockout colon cells, dose response, cell-based, HCT116, human colon tumor (AID 1045); assay type: functional;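 further: HCT116 colon tumor cells with beta catenin knocked out; cells exposed to compound for 60 hours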
# T2 sequence (P49327 whole entry, the tested form may be a part): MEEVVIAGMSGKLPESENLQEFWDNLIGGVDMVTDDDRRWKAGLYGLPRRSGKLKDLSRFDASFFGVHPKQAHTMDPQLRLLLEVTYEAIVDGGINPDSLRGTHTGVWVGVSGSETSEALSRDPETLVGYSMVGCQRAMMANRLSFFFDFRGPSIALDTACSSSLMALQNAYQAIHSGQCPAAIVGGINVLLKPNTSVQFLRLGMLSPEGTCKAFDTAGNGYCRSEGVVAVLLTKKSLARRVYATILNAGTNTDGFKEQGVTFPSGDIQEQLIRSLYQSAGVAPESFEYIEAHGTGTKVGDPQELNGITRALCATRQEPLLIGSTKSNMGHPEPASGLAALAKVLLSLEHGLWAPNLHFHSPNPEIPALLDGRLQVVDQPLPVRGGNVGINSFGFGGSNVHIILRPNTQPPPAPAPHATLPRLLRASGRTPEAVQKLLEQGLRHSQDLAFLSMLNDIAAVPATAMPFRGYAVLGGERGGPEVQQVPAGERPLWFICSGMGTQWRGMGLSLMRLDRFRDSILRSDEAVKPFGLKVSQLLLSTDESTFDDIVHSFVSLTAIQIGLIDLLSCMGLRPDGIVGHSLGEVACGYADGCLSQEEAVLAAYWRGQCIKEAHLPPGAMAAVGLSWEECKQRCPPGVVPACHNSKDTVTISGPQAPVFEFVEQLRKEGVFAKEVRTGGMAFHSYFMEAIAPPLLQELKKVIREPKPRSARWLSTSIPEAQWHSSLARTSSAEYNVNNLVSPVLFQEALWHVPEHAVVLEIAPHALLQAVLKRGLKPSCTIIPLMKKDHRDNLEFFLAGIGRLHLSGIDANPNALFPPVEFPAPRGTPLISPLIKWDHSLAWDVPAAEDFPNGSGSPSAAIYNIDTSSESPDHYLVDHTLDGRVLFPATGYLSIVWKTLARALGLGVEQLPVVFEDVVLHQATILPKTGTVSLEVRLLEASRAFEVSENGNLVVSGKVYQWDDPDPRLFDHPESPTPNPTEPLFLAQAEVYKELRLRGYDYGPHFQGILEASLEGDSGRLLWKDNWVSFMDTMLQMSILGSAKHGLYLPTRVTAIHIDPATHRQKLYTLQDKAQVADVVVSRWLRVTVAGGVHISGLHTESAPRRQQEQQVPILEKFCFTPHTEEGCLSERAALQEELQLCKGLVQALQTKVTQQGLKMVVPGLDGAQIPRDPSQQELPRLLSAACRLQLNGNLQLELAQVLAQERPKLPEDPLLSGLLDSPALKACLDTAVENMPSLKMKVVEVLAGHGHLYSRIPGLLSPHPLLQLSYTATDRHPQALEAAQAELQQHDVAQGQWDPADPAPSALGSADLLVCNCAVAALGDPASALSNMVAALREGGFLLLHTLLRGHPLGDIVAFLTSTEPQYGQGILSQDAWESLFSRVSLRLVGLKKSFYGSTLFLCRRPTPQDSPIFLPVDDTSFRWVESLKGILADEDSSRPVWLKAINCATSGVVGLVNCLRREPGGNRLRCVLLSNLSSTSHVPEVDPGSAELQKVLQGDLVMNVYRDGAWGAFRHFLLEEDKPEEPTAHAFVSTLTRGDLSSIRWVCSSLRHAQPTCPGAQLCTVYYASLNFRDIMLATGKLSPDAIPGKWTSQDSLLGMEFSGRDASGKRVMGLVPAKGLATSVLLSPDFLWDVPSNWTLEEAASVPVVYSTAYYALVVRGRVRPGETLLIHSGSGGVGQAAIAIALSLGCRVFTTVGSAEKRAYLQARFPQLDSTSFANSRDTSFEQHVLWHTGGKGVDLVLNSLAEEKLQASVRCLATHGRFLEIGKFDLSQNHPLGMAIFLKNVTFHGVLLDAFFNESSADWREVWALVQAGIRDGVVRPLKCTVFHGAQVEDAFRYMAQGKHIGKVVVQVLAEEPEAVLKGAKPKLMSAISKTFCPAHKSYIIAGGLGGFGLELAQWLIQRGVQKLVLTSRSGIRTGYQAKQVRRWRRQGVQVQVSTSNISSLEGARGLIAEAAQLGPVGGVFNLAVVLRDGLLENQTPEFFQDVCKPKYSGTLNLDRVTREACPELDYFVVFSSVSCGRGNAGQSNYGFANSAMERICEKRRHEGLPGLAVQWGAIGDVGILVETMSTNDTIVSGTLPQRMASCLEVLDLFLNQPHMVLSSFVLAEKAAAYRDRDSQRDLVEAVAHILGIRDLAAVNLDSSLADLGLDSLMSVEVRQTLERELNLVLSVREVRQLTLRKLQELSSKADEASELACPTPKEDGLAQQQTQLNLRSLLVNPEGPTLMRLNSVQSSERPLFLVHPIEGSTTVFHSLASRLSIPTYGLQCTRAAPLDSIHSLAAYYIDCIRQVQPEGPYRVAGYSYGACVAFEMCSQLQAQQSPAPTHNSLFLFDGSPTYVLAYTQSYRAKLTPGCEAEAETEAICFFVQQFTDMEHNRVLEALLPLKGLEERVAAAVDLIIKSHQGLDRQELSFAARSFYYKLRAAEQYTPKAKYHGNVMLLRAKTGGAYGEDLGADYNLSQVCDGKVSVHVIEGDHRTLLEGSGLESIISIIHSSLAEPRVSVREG
smiles,measurement,setting,value
Cc1cc(C(=O)CCl)c(C)n1-c1cccc([N+](=O)[O-])c1,CC50,[1],13.5 µM (active)
O=C1NC(=S)S/C1=C\c1cc2ccccc2nc1N1CCCCC1,AC50,[2],3.98 µM (active)
same,IC50,[3],1.63 µM (not active)
same,IC50,Fatty acid synthase [4],11.2 µM (active)
same,IC50,Fatty acid synthase [5],46 µM (inactive)
same,AC50,[6],11.1 µM (active)
CCCCCn1c(CN2CCN(c3cccc(Cl)c3)CC2)nc2c1c(=O)[nH]c(=O)n2C,CC50,[1],> 40 µM (active)
Cc1oc(-c2cccc(Cl)c2)nc1CN1CCC(C(=O)N2CCN(c3ccccc3F)CC2)CC1,EC50,[7],15.5 µM (active)
same,EC50,[8],14.5 µM (active)
same,CC50,[1],28.9 µM (active)
